# Results: US20130079345A1, “[…] ACTIVE DISUBSTITUTED TRIAZINE DERIVATIVES” (BAYER INTELLECTUAL PROPERTY GMBH, priority 2010, published 2013)
# Legend:
# CDK9/CycT1 = target: T1, CDK9/CycT1 (Homo sapiens, UniProt P50750); experiment: CDK9/CycT1 kinase assay (TR-FRET); assay type: biochemical; details: ATP 10 μM
# T1 construct: Recombinant full-length His-tagged human CDK9 and CycT1; His; purchased Invitrogen PV4131; host or cells: insect cells
# Source text: CDK9/CycT1-inhibitory activity of compounds of the present invention was quantified employing the CDK9/CycT1 TR-FRET assay as described in the following paragraphs.
# Recombinant full-length His-tagged human CDK9 and CycT1, expressed in insect cells and purified by Ni-NTA affinity chromatography, were purchased from Invitrogen (catalogue number PV4131). A biotinylated peptide biotin-Ttds-[…] (C-terminus in amide form), which can be purchased from e.g the company JERINI Peptide Technologies (Berlin, Germany), was used as a substrate for the kinase reaction.
# (§1) For the assay, 50 nl of a 100-fold concentrated solution of the test compound in DMSO was pipetted into a well of a black low-volume 384-well microtiter plate (Greiner Bio-One, Frickenhausen, Germany), 2 μl of a solution of CDK9/CycT1 in aqueous assay buffer [50 mM Tris/HCl pH 8.0], 10 mM MgCl2, 1.0 mM dithiothreitol, 0.1 mM sodium ortho-vanadate, 0.01% (v/v) Nonidet-P40 (Sigma)] were added. The mixture was incubated at 22° C. for 15 min to allow pre-binding of the test compounds to the enzyme before the start of the kinase reaction. […] The resulting mixture was incubated at 22° C. for a reaction time of 25 minutes. The concentration of CDK9/CycT1 was adjusted depending of the activity of the enzyme lot and was chosen appropriately for measurements in the linear range of the assay. Typical concentrations were in the range of 1 μg/ml. The reaction was stopped by the addition of 5 μl of a solution of TR-FRET detection reagents (0.2 μM streptavidine-XL and 1 nM anti-RB(pSer807/pSer811)-antibody from BD Pharmingen [#558389] and 1.2 nM LANCE EU-W1024 labeled anti-mouse IgG antibody [Perkin-Elmer, product no. AD0077]) in an aqueous EDTA-solution (100 mM EDTA, 0.2% (w/v) bovine serum albumin in 100 mM HEPES/NaOH, pH 7.0).
# (§2) The resulting mixture was incubated at 22° C. for one hour to allow the formation of a complex between the phosphorylated biotinylated peptide and the detection reagents. Subsequently, the amount of phosphorylated substrate was evaluated by measurement of the resonance energy transfer from the Eu-chelate to the streptavidine-XL. Therefore, the fluorescence emissions at 620 nm and 665 nm after excitation at 350 nm were measured in a HTRF reader, e.g. a Rubystar (BMG Labtechnologies, Offenburg, Germany) or a Viewlux (Perkin-Elmer). The ratio of the emissions at 665 nm and at […] was taken as a measure for the amounts of phosphorylated substrate. The data were normalised, i.e. enzyme reaction without inhibitor corresponds to 0% inhibition, and all other assay components in the absence of the enzyme correspond to 100% inhibition. IC50 values were calculated by a 4-parameter fit using in-house software.
# CDK2/CycE = target: T2, CDK2/CycE (Homo sapiens, UniProt P24941); experiment: CDK2/CycE kinase assay (TR-FRET); assay type: biochemical; details: ATP 10 μM
# T2 construct: GST; purchased ProQinase GmbH (Freiburg, Germany); host or cells: insect cells (Sf-9)
# Source text: CDK2/CycE-inhibitory activity of compounds of the present invention was quantified employing the CDK2/CycE TR-FRET assay as described in the following paragraphs.
# Recombinant fusion proteins of glutathione S-transferase (GST) and human CDK2 and of GST and human CycE, expressed in insect cells (Sf-9) and purified by glutathion-sepharose affinity chromatography, were purchased from ProQinase GmbH (Freiburg, Germany). A biotinylated peptide biotin-Ttds-[…] (C-terminus in amide form), which can be purchased from e.g the company JERINI Peptide Technologies (Berlin, Germany), was used as a substrate for the kinase reaction.
# as §1, with “of CDK2/CycE” for “of CDK9/CycT1”, “for” for “for a reaction time of”, “depending on” for “depending of”, “of 130 ng/ml.” for “of 1 μg/ml.”
# as §2, with “measuring” for “measurement of”, “high time-resolved fluorometry (HTRF)” for “HTRF”
# T1 sequence (P50750 whole entry): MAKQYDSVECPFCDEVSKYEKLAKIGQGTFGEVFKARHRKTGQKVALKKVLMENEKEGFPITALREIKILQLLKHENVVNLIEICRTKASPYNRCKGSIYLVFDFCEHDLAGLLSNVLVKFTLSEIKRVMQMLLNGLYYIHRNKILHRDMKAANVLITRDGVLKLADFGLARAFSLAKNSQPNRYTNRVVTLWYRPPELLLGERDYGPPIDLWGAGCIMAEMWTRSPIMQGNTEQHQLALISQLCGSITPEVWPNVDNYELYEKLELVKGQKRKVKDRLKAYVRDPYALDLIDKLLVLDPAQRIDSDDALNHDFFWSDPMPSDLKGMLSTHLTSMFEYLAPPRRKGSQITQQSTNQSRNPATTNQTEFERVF
# T1 sequence (O60563 whole entry partner): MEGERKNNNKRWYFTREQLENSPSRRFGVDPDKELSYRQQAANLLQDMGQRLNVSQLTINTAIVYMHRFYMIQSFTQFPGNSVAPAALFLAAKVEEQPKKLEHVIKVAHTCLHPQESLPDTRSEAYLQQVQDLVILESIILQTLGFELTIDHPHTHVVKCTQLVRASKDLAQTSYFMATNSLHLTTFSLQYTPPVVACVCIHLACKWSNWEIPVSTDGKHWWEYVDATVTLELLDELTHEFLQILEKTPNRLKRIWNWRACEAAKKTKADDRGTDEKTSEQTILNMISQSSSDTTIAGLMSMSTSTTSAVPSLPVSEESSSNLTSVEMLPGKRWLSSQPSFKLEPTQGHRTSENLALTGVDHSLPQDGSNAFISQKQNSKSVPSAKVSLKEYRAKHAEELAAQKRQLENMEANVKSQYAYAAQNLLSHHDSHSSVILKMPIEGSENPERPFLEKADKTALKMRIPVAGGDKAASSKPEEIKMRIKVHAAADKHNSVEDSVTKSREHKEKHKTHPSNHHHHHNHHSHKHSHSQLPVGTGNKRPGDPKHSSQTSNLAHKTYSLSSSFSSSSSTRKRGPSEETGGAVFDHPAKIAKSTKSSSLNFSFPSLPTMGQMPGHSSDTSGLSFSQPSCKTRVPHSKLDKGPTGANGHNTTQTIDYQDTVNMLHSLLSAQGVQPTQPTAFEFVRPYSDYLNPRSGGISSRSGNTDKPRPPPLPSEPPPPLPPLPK
SMILES,IC50 (CDK9/CycT1; values given in μM) [µM],IC50 (CDK2/CycE; values given in μM) [µM],IC50 (CDK9/CycT1; values in nM) [µM],IC50 (CDK2/CycE; values in nM) [µM]
"Cc1ccc(Cl)cc1-c1ncnc(Nc2ccc(Cl)cc2)n1 [Ref3, [6-(5-Chloro-2-methyl-phenyl)-[1,3,5]triazin-4-yl]-(4-chloro-phenyl)-amine, reference compound]",> 20,> 20,–,–
"COc1ccccc1-c1ncnc(Nc2cccc(S(N)(=O)=O)c2)n1 [Compound C1, 3-[(4-(2-Methoxyphenyl)-1,3,5-triazin-2-yl)amino]benzenesulfonamide]",–,–,0.01,0.45
"NC(=O)c1ccc(Nc2ncnc(-c3ccccc3NC(=O)c3ccccc3)n2)cc1 [Ref5, 4-[4-(2-Benzoylaminophenyl)-[1,3,5]triazin-2-ylamino]benzamide, reference compound]",8.4,14,–,–

# Results, then the molecule that gave them:
IC50 (CDK9/CycT1; values given in μM) [µM],IC50 (CDK2/CycE; values given in μM) [µM],IC50 (CDK9/CycT1; values in nM) [µM],IC50 (CDK2/CycE; values in nM) [µM],SMILES
3.6,3,–,–,"CC(=O)Nc1cc(F)ccc1-c1ncnc(Nc2cccc(CS(N)(=O)=O)c2)n1 [Compound U4, N-[5-fluoro-2-(4-{[3-(sulfamoylmethyl)phenyl]amino}-1,3,5-triazin-2-yl)phenyl]acetamide]"
–,1.6,0.034,–,"NS(=O)(=O)Cc1cccc(Nc2ncnc(-c3ccc(F)cc3OCC3CC3)n2)c1 [Compound U5, 1-[3-({4-[2-(cyclopropylmethoxy)-4-fluorophenyl]-1,3,5-triazin-2-yl}amino)phenyl]methanesulfonamide]"
15,15,–,–,"NS(=O)(=O)Cc1cccc(Nc2ncnc(-c3ccc(F)cc3C(F)(F)F)n2)c1 [Compound U1, 1-[3-({4-[4-fluoro-2-(trifluoromethyl)phenyl]-1,3,5-triazin-2-yl}amino)phenyl]methanesulfonamide]"
–,12,0.37,–,"COc1c(-c2ncnc(Nc3cccc(CS(N)(=O)=O)c3)n2)ccc(F)c1F [Compound U6, 1-(3-{[4-(3,4-difluoro-2-methoxyphenyl)-1,3,5-triazin-2-yl]amino}phenyl)methanesulfonamide]"
